Results published in patent US20180327367A1, “MACROCYCLIC BROAD SPECTRUM ANTIBIOTICS” (priority 2015, published 2018).
≈ marks a conversion by molar mass, not a printed value. Where two headings read alike, the source gives them in different places.

Key:
[1] = tested on: Methicillin Resistant Staphylococcus aureus strain USA 300, NRS384; assay: Minimum inhibitory concentration, broth micro-dilution (CLSI), S. aureus; type: cell-based; conditions: 35° C., 22 hours; for MIC: Staphylococcus aureus, MRSA / NRS 384 / USA300, 22 h
Method in brief: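 Ten-point 2-fold series began at 4 μg/mL in protocol 2 and 0.5 μg/mL in protocol 3, in cation-adjusted MHB plus 0.002% Tween-80. Bacteria added to OD600 0.0005 final and incubated at 35° C for 22 hours per CLSI microdilution.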

[2] = tested on: Escherichia coli MC4100 harboring the IMP4213 (E. coli IMP); assay: microbe, parasite or virus in culture; type: cell-based; conditions: 35° C., 22 hours; for MIC (μg/mL) E. coli IMP: E. coli MC4100 IMP4213, increased outer-membrane permeability; for MIC: Escherichia coli, 22 h, read-out: MIC (μg/mL) E. coli IMP, E. coli MC4100 IMP4213, increased outer-membrane permeability
Method in brief: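 Colonies grown 20 hours at 35° C were suspended in cation-adjusted Mueller Hinton Broth with 0.002% Tween-80. Cells were then added to 2-fold compound dilutions starting at 4 or 0.5 μg/mL, at OD600 0.0005.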

[3] = target: T1, SpsB (Staphylococcus aureus signal peptidase) (Staphylococcus aureus, UniProt P0A070); assay: cell-based; type: biochemical; conditions: SpsB IC50, whole-cell S. aureus (USA300 background, overexpressing SpsB) as SpsB source; fluorogenic peptide substrate, kinetic read 30 min
T1 construct: This assay uses a suspension of Staphylococcus aureus cells as a source of SpsB instead of recombinant SpsB protein; endogenous in cells; host or cells: S. aureus, USA300 background, overexpressing SpsB (whole-cell suspension from frozen pellets)
Procedure: A kinetic fluorogenic enzyme activity assay was used to assess inhibition of SpsB (Staphylococcus aureus signal peptidase) activity and IC50s were determined. This assay uses a suspension of Staphylococcus aureus cells as a source of SpsB instead of recombinant SpsB protein.
Cell preparation: Luria broth (LB) was inoculated with S. aureus (USA300 background, overexpressing SpsB) and shaken at 37° C. until an OD600 nm of 1.5-2.0 was reached (˜4 hr). The culture was then diluted to an OD600 nm of 1.0 with LB, aliquoted and centrifuged at 10,000×g for 2 mins. The supernatant was removed and the pellet was resuspended in phosphate buffer (1×PBS, 12.5 mg/L MgCl2, 25 mg/L CaCl2, 0.1% Tween-80) to an OD600 nm of 0.5, then centrifuged again at 10,000x g for 2 mins. The supernatant was removed and the pellets were frozen at −20° C.
Test compounds were prepared in DMSO at a concentration of 10 mg/mL. These compound stocks were diluted into DMSO to a concentration of 25 μg/mL and serial 3-fold dilutions were made in DMSO, for a total of 11 compound concentrations. 20 nL of each compound solution was pre-spotted into a white 384-well plate (50 μL/well polypropylene, Nunc) using acoustic fluid transfer (Echo).
Frozen S. aureus pellets were resuspended in assay buffer (1x PBS, 12.5 mg/L MgCl2, 25 mg/L CaCl2, 0.1% Tween-80) to an OD600 nm of 0.05, then mixed 1:1 (v/v) with 20 μM substrate ((Dabcyl)βAla-KPAKAAE(Edans)) in assay buffer, and this solution was added (20 μL/well) to the 384-well plate that had been pre-spotted with compound. Fluorescence intensity was then immediately read kinetically for 30 minutes with 2 minute read intervals to monitor cleavage of the internally quenched peptide substrate (excitation wavelength=340 nm, emission wavelength=490 nm, Molecular Devices Spectramax M5). Reaction rate (slope) was plotted against inhibitor concentration to derive the IC50.

[4] = tested on: Escherichia coli ATCC 25922; assay: Minimum inhibitory concentration, broth micro-dilution (CLSI), E. coli; type: cell-based; conditions: 35° C., 22 hours; for MIC: Escherichia coli, ATCC25922, 22 h
[5] = read-out: MIC (μg/mL) S. aureus, MRSA USA 300 NRS384
[6] = read-out: MIC (μg/mL) E. coli, E. coli ATCC 25922
[7] = MRSA USA 300 NRS384, read-out: MIC (μg/mL) S. aureus
[8] = E. coli ATCC 25922, read-out: MIC (μg/mL) E. coli

T1 sequence (P0A070 whole entry): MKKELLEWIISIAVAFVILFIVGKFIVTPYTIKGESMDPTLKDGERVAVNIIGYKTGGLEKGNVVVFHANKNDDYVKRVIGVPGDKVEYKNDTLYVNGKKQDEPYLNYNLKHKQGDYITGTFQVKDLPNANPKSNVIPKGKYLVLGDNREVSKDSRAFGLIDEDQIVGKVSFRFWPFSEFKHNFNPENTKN

Structure (SMILES)	MIC (μg/mL) S. aureus ([1]; MRSA USA 300 NRS384) [µg/mL]	MIC (μg/mL) E. coli IMP [2] [µg/mL]	IC50 [3] [nM]	MIC (μg/mL) E. coli ([4]; E. coli ATCC 25922) [µg/mL]	MIC [1, 5] [µg/mL]	MIC [2] [µg/mL]	MIC [4, 6] [µg/mL]	MIC [1, 7] [µg/mL]	MIC [4, 8] [µg/mL]
Cc1cc(C2CC2c2ccccc2)ccc1C(=O)N[C@@H](CCN)C(=O)N(C)[C@@H]1C(=O)N[C@@H](C)C(=O)N[C@H](C(=O)NCC#N)Cc2ccc(OCCN)c(c2)-c2cc1ccc2OCCN (mixture of isomers) [Compound 440]	0.19	0.063	0.81	8	–	–	–	–	–
C[C@@H]1NC(=O)[C@@H](N(C)C(=O)[C@H](CCCCN)NC(=O)c2ccc(-c3ccc(Cl)cc3)cc2)c2ccc(OCC(O)CN)c(c2)-c2cc(ccc2O)C[C@@H](C(=O)NCC#N)NC1=O (mixture of isomers) [Compound 514]	–	–	2	–	0.25	0.19	32	–	–
CCCCCCCCCC(=O)N[C@@H](C(=O)N[C@@H](CCN)C(=O)N(C)[C@@H]1C(=O)N[C@@H](C)C(=O)N[C@H](C(=O)NCC#N)Cc2ccc(OCCN)c(c2)-c2cc1ccc2OCCN)C(C)O (single isomer, unassigned) [Compound 357-P2]	–	–	1.1	–	0.094 (≈ 0.105 µM)	0.094 (≈ 0.105 µM)	12 (≈ 13.4 µM)	–	–
CCCCCCCCC(O)C(=O)NC(CO)C(=O)N(C)C1C(=O)NC(C)C(=O)NC(C(=O)NCC#N)Cc2ccc(OCCN)c(c2)-c2cc1ccc2OCCN (single isomer, unassigned) [Compound 393-P1]	–	–	5.9	–	2 (≈ 2.52 µM)	1 (≈ 1.26 µM)	> 64	–	–
CCCCCCCCC(O)C(=O)NC(CO)C(=O)N(C)C1C(=O)NC(C)C(=O)NC(C(=O)NCC#N)Cc2ccc(OCCN)c(c2)-c2cc1ccc2OCCN (single isomer, unassigned) [Compound 393-P2]	1 (≈ 1.26 µM)	2 (≈ 2.52 µM)	4.7	>64	–	–	–	–	–
CCCCCCCCC(F)C(=O)NC(CO)C(=O)N(C)C1C(=O)NC(C)C(=O)NC(C(=O)NCC#N)Cc2ccc(OCCN)c(c2)-c2cc1ccc2OCCN (single isomer, unassigned) [Compound 394-P1]	–	–	3.9	–	1 (≈ 1.25 µM)	0.25 (≈ 0.314 µM)	> 64	–	–
CCCCCCCCC(F)C(=O)NC(CO)C(=O)N(C)C1C(=O)NC(C)C(=O)NC(C(=O)NCC#N)Cc2ccc(OCCN)c(c2)-c2cc1ccc2OCCN (single isomer, unassigned) [Compound 394-P2]	0.5 (≈ 0.627 µM)	0.38 (≈ 0.477 µM)	2.7	64 (≈ 80.3 µM)	–	–	–	–	–
CCCCCCCCCCNCCC(=O)N[C@@H](CCCCN)C(=O)N(C)[C@@H]1C(=O)N[C@@H](C)C(=O)N[C@H](C(=O)NCC#N)Cc2ccc(OCCN)c(c2)-c2cc1ccc2OCCN [Compound 101]	–	–	0.72	–	–	1.7 (≈ 1.94 µM)	–	0.094 (≈ 0.107 µM)	48 (≈ 54.7 µM)
CCCCCCCCCCCCC(=O)N[C@@H](CCN)C(=O)N(C)[C@@H]1C(=O)N[C@@H](C)C(=O)N[C@H](C(=O)NCC#N)Cc2ccc(OCCN)c(c2)-c2cc1ccc2OCCN [Compound 102]	–	–	0.52	–	–	0.0078 (≈ 0.00935 µM)	–	0.023 (≈ 0.0276 µM)	0.25 (≈ 0.3 µM)
CCCCCCCCCCCC(=O)N[C@@H](CCN)C(=O)N(C)[C@@H]1C(=O)N[C@@H](C)C(=O)N[C@H](C(=O)NCC#N)Cc2ccc(OCCN)c(c2)-c2cc1ccc2OCCN [Compound 103]	–	–	0.57	–	–	0.0078 (≈ 0.00951 µM)	–	0.023 (≈ 0.028 µM)	1 (≈ 1.22 µM)
CCCCCCCCCCC(=O)N[C@@H](CCN)C(=O)N(C)[C@@H]1C(=O)N[C@@H](C)C(=O)N[C@H](C(=O)NCC#N)Cc2ccc(OCCN)c(c2)-c2cc1ccc2OCCN [Compound 104]	–	–	0.5	–	–	0.023 (≈ 0.0285 µM)	–	0.047 (≈ 0.0583 µM)	4 (≈ 4.96 µM)
CCCCCCCCCC(=O)N[C@@H](CCN)C(=O)N(C)[C@@H]1C(=O)N[C@@H](C)C(=O)N[C@H](C(=O)NCC#N)Cc2ccc(OCCN)c(c2)-c2cc1ccc2OCCN [Compound 105]	–	–	0.82	–	–	0.031 (≈ 0.0391 µM)	–	0.13 (≈ 0.164 µM)	8 (≈ 10.1 µM)
CCCCCCCCC(=O)N[C@@H](CCN)C(=O)N(C)[C@@H]1C(=O)N[C@@H](C)C(=O)N[C@H](C(=O)NCC#N)Cc2ccc(OCCN)c(c2)-c2cc1ccc2OCCN [Compound 106]	–	–	1.7	–	–	0.13 (≈ 0.167 µM)	–	0.38 (≈ 0.488 µM)	24 (≈ 30.8 µM)
CCCCCCCC(=O)N[C@@H](CCN)C(=O)N(C)[C@@H]1C(=O)N[C@@H](C)C(=O)N[C@H](C(=O)NCC#N)Cc2ccc(OCCN)c(c2)-c2cc1ccc2OCCN [Compound 107]	–	–	4	–	–	0.38 (≈ 0.497 µM)	–	1 (≈ 1.31 µM)	32 (≈ 41.9 µM)
C[C@@H]1NC(=O)[C@@H](N(C)C(=O)[C@H](CCCCN)NC(=O)c2ccc(-c3ccc(C(C)(C)C)cc3)cc2)c2ccc(OCCN)c(c2)-c2cc(ccc2OCCN)C[C@@H](C(=O)NCC#N)NC1=O [Compound 108]	–	–	1.2	–	0.063 (≈ 0.0698 µM)	0.047 (≈ 0.0521 µM)	0.5 (≈ 0.554 µM)	–	–
COc1ccc(-c2ccc(C(=O)N[C@@H](CCCCN)C(=O)N(C)[C@@H]3C(=O)N[C@@H](C)C(=O)N[C@H](C(=O)NCC#N)Cc4ccc(OCCN)c(c4)-c4cc3ccc4OCCN)cc2)cc1OC [Compound 109]	–	–	7.5	–	–	1 (≈ 1.1 µM)	–	2 (≈ 2.21 µM)	> 64
C[C@@H]1NC(=O)[C@@H](N(C)C(=O)[C@H](CCCCN)NC(=O)c2ccc(/C=C/c3ccccc3)cc2)c2ccc(OCCN)c(c2)-c2cc(ccc2OCCN)C[C@@H](C(=O)NCC#N)NC1=O [Compound 110]	–	–	0.96	–	0.19 (≈ 0.218 µM)	0.063 (≈ 0.0722 µM)	8 (≈ 9.17 µM)	–	–
C[C@@H]1NC(=O)[C@@H](N(C)C(=O)[C@H](CCCCN)NC(=O)c2ccc(-c3cc(Cl)cc(Cl)c3)cc2)c2ccc(OCCN)c(c2)-c2cc(ccc2OCCN)C[C@@H](C(=O)NCC#N)NC1=O [Compound 111]	–	–	1	–	0.13 (≈ 0.142 µM)	0.13 (≈ 0.142 µM)	8 (≈ 8.74 µM)	–	–
C[C@@H]1NC(=O)[C@@H](N(C)C(=O)[C@H](CCCCN)NC(=O)c2ccc(-c3ccc(C(F)(F)F)cc3)cc2)c2ccc(OCCN)c(c2)-c2cc(ccc2OCCN)C[C@@H](C(=O)NCC#N)NC1=O [Compound 112]	–	–	0.77	–	0.13 (≈ 0.142 µM)	0.13 (≈ 0.142 µM)	8 (≈ 8.75 µM)	–	–
C[C@@H]1NC(=O)[C@@H](N(C)C(=O)[C@H](CCCCN)NC(=O)c2cccc(-c3ccc(Cl)cc3)c2)c2ccc(OCCN)c(c2)-c2cc(ccc2OCCN)C[C@@H](C(=O)NCC#N)NC1=O [Compound 113]	–	–	0.51	–	0.19 (≈ 0.216 µM)	0.13 (≈ 0.148 µM)	32 (≈ 36.3 µM)	–	–
C[C@@H]1NC(=O)[C@@H](N(C)C(=O)[C@H](CCCCN)NC(=O)c2ccccc2-c2ccc(Cl)cc2)c2ccc(OCCN)c(c2)-c2cc(ccc2OCCN)C[C@@H](C(=O)NCC#N)NC1=O [Compound 114]	–	–	6.1	–	2 (≈ 2.27 µM)	2 (≈ 2.27 µM)	> 64	–	–
CCCCc1ccc(-c2ccc(C(=O)N[C@@H](CN)C(=O)N(C)[C@@H]3C(=O)N[C@@H](C)C(=O)N[C@H](C(=O)N[C@@H](C)C#N)Cc4ccc(OCCN)c(c4)-c4cc3ccc4OCCN)cc2)cc1 [Compound 340]	–	–	0.69	–	–	< 0.063	–	–	0.75 (≈ 0.858 µM)
CCCCCCCCc1ccc(C(=O)N[C@@H](CCCN)C(=O)N(C)[C@@H]2C(=O)N[C@@H](C)C(=O)N[C@H](C(=O)NCC#N)Cc3ccc(OC)c(c3)-c3cc2ccc3OC)cc1 [Compound 471]	–	–	10	–	–	< 0.063	–	–	48 (≈ 59.3 µM)
